The record followed here is a melting point compilation (Tetko et al.; mined from patent text by program, amines drawn as free bases though some values may be those of a salt).

The melting point is the temperature, or range, at which the solid turns liquid.

In turn, `COc1cc(OCC(=O)O)cc(C)c1SCc1sc(-c2ccc(C(F)(F)F)cc2)nc1C` registered a melting point of 164 to 165 °C. Next, `CC12C=CCC1c1ccc3cc(O)ccc3c1CC2` (configuration not stated): 162 to 163 °C; `CCC1(CCCN2CCc3sccc3C2)C(=O)Nc2ccc(Cl)cc21` (configuration not stated): 66 to 69 °C; `Cc1cnc(CCC(C)C#N)c(N)c1` (configuration not stated): 112 to 114 °C. On to `COC(=O)C(Oc1cc(OCc2ccsc2)ccc1C#N)c1ccccc1C` (racemic), for which the melting point lay within 102 to 104 °C.

As for `O=[N+]([O-])c1ccc(Oc2ccc(Cl)c(Cl)c2)nc1`, the melting point is 101 to 102 °C.

In the case of `C[C@@H]1CCCC[C@@H]1Nc1c(C(N)=O)cnc2[nH]c(-c3ccc(F)cc3)cc12`, the melting point is > 280 °C. To `CC(C(N)=O)C1CC(c2ccc(N3CCSCC3)c(F)c2)=NO1` (configuration not stated) belongs 188 to 189 °C; to `CC(C)(C)c1cc(NC(=S)NCc2ccc(N)cc2)cc(C(C)(C)C)c1O`, 167 to 169 °C; to `CCOC1CCC(=O)N1S(=O)(=O)C=Cc1ccccc1` (configuration not stated), 61 to 63 °C. On to `CC(C)(C)c1ccc(C(=O)Nc2ccc3oc4c(c3c2)CCCC4)cc1`, for which the melting point lay in the range of 185 to 186 °C. Next, `CC(=O)Oc1cccc(C=C2CCCc3cc(C)cnc32)c1`: 66 to 68 °C. Consider `COc1ccc(-c2cc(C(F)F)nn2-c2ccc(S(N)(=O)=O)cc2)cc1I`, for which the melting point was 135 to 137 °C.

Consider `CC(C)(C)OC(=O)N1CCc2c(n(CC(=O)Nc3ccccc3)c3ccc(Cl)c(Cl)c23)CC1`, for which the melting point was in the range of 208 to 210 °C. To `CCCCCCNC(=O)OCCCCCCNC(=O)OC1CCN(C(=O)Oc2ccc(C3CCCCC3)cc2)CC1` belongs 94 to 96 °C. Next, `CC(C(=O)O)c1ccc(N2CC(O)C(O)C2)c(Cl)c1` (configuration not stated): 112 to 114 °C. Take `CCn1cnc2c(Nc3cccc(Cl)c3)nc(Cl)nc21`: the melting point was 127 to 128 °C.

On to `CC(=O)NNc1ccnc2c(NC(=O)c3c(Cl)cccc3Cl)ccc(C)c12`, for which the melting point was in the range of 230 to 234 °C.

`COc1cc(Cl)c(N)cc1C(=O)N[C@H]1CCNC[C@H]1OC` (relative stereo) returned a melting point of 192 °C. To `CNc1nc(-c2cccc(NC(=O)c3ccccc3)c2)c2cc(OC)c(OC)cc2n1` belongs 146 to 148 °C; to `COc1ccc(C(=O)Nc2nc3ccc(N(C)C)cc3c(NCc3cccs3)c2C#N)cc1`, 163 °C; to `CS(=O)(=O)c1cccc(-c2ccc(C3C(CCC(O)c4ccc(F)cc4)C(=O)N3c3ccc(F)cc3)cc2)c1` (configuration not stated), 104 °C.

The compound `CN(CC1Nc2cc(Cl)c(S(N)(=O)=O)cc2S(=O)(=O)N1)C(=O)CBr` (configuration not stated) returned a melting point of 150 to 152 °C. For the compound `C#CCNC1CCc2ccccc21` (configuration not stated), the melting point was in the range of 39 to 41 °C. With `O=CNc1nc(OCc2ccccc2)ncc1F`, the melting point lay within 153 to 157 °C. Next, `CCOC(=O)c1cn2ccc(NC(=O)c3cc4cc(C(F)(F)F)ccc4n3Cc3cccc(F)c3)cc2n1`: 282 to 283 °C; `CC(C)(C1CCCCC1)C(NC(=O)c1ccc(Cl)cc1)Nc1c(Nc2cccnc2)c(=O)c1=O` (configuration not stated): 275 to 276 °C; `Cc1ccc(C2CCCN2S(=O)(=O)c2ccc(Cl)cc2)cc1` (racemic): 129 °C. On to `Nc1c(Br)cc(F)c(Cl)c1F`, for which the melting point was determined as 62 °C. Regarding `C[C@@H](CNC(=O)OC(C)(C)C)c1ccc(O)c(O)c1`, the melting point lay in the range of 116 to 118 °C. Next, `COc1ccc(-c2noc3cc(OC)ccc23)c(C)c1`: 126 to 128 °C; `CCCCOc1nc2cccc(C(=O)OC)c2n1Cc1ccc(-c2ccccc2-c2nnn[nH]2)cc1`: 146 to 148 °C.

Compound `COc1cc(OC)cc(Sc2ccccc2C(=O)O)c1` showed a melting point of 182 °C. The compound `CCC(C)(C)c1ccc(OCCCNC(=O)c2cc([N+](=O)[O-])c3ccccc3c2O)c(C(C)(C)CC)c1` yielded a melting point of 209 to 210 °C. With `CCCCc1cc2c(N=C3SC[C@@H]4Cc5ccccc5CN34)cccc2cn1`, the melting point was found to be 82 °C.

For the compound `N#Cc1ccc(-c2cccc(-c3nc4cc(C#N)ccc4[nH]3)c2)cc1`, the melting point lay within 303 to 304 °C. Next, `CC(C)CN1c2ccccc2C(C)(C)C12C=Nc1c(cc(N3CCc4ccccc43)c3ccccc13)O2` (configuration not stated): 167 to 168 °C; `CCOC(=O)C1CNc2cc(-c3ccccc3)ccc2O1` (configuration not stated): 141 to 145 °C; `Cc1nn2c(CCCOc3ccc(NCCC(=O)O)cc3)n[nH]c2c1Cl`: 151 to 153 °C. Next, `Cn1c(COc2ccc(CC3SC(=O)N(C(c4ccccc4)(c4ccccc4)c4ccccc4)C3=O)cc2)nc2cc(Br)cnc21` (configuration not stated): 97 to 100 °C; `CCSC1(Sc2ccccc2)CCC2C3CCC4=CC(=O)C=CC4(C)C3(F)C(OC(C)=O)CC21C` (configuration not stated): 145 to 148 °C. Next, `Cc1nnc2n1-c1sc(CC(=O)O)cc1C(c1ccccc1Cl)=NC2C` (configuration not stated): 222 to 225 °C; `COc1ccc(S(=O)(=O)C2(C(=O)O)CCN(Cc3ccc(-c4ccccn4)cc3)CC2)cc1`: 217 °C. `BrCc1cccc(-c2ccccc2)c1` showed a melting point of 54 to 56 °C. To `CC(CC(C)(C)O)Nc1ncc2cc(Oc3ccc(F)cc3F)c(=O)n(C)c2n1` (configuration not stated) belongs 159 to 161 °C; to `CN(Cc1ccc2c(Br)c(OCC#N)ccc2c1)C(=O)c1cn(C)c2ccccc12`, 148 to 150 °C; to `COC(=O)c1cc(OC)c(OC)cc1C1=NCCc2ccccc21`, 133 °C. To `C#CCNc1onc(-c2ccccc2)c1Cl` belongs 83 to 84 °C; to `N=C(NC=Cc1ccc([N+](=O)[O-])cc1)c1cccc([N+](=O)[O-])c1`, 152 to 155 °C; to `Cc1ccccc1C(=O)Nc1cccc(C(C)C)c1`, 70 to 71 °C. Next, `O=C(O)CCC(=O)c1ccc([N+](=O)[O-])c(O)c1`: 158 to 160 °C. `O=c1[nH]ncc2ccc(OCC3CO3)cc12` (configuration not stated) had a melting point of 164 to 166 °C.

With `CC(C)C[C@@H]1NC(=O)OC1(c1ccccc1)c1ccccc1`, the melting point lay in the range of 212 to 214 °C. In turn, `COc1ccc(C(=O)Nc2cc(NC(=O)c3cccc(Br)c3)ccc2C)cc1OC` came in with a melting point of 136 to 138 °C. As for `Cc1ccc2sc(C(C)(C)C)nc2c1`, the melting point lay within 55 to 57 °C. As to `CCOC(=O)c1cn(C2CC2)c2nc3cc(F)c(F)cc3cc2c1=O`, the melting point worked out at 230 °C.

In turn, `CN(C)CC(=O)N1c2cc(Cl)ccc2N(C)S(=O)(=O)c2ccccc21` returned a melting point of 175 to 176 °C. In turn, `Cc1ccc(-n2cc(-c3cccn4nc(Nc5ccc(C6CCN(C(=O)OC(C)(C)C)CC6)cc5)nc34)cn2)cc1` registered a melting point of 124 to 125 °C. To `CN(C)c1ncc(Br)cn1` belongs 81 to 82 °C; to `CCCCCCCCCCCOc1cccc(CCCC(N)(CO)CO)c1`, 71 to 72 °C.

`O=C(NC1CCN(CCc2ccncc2)CC1)c1ccccc1` registered a melting point of 193 to 195 °C. `CCCCCCc1cc2c(s1)-n1c(C)nnc1CN=C2c1ccc(OC)cc1`: the melting point lay within 97 to 99 °C. To `N#Cc1c(N2CCN(C(=O)c3cccs3)CC2)c2cc(Cl)ccc2n(Cc2ccccc2)c1=O` belongs 266 °C. For `COCC(C)Nc1cc(-c2ncnc(Nc3cccc(Cl)c3)n2)ccn1` (configuration not stated), the melting point lay within 149 to 151 °C. `Cc1ccc(S(=O)(=O)OCC2Cc3cccc(-c4ccccc4C(F)(F)F)c3O2)cc1` (configuration not stated) yielded a melting point of 116 to 118 °C. `CC(=O)OCC1OC(n2cnc3c(NCC(c4ccccc4)c4ccccc4)ncnc32)C(OC(C)=O)C1OC(C)=O` (configuration not stated) came in with a melting point of 75 to 80 °C. Compound `CC(C)C[C@H](NC(=O)CCSC(=O)c1ccccc1)C(=O)O` showed a melting point of 99 to 101 °C.

Compound `Cc1ccc(-c2nn(-c3ccccc3)c(N)c2C(N)=O)cc1` registered a melting point of 186 to 187 °C. The compound `Cc1ccc(C2c3c(C)c(NCc4ccc(F)cc4)c(C)c(C)c3OC2(C)C)cc1` (configuration not stated) showed a melting point of 92 to 94 °C. On to `Cc1ccnc(-c2ccc(CBr)cc2)n1`, for which the melting point lay within 104 to 106 °C. To `CCNC(CO)Cc1cc(OC)cc(OC)c1` (configuration not stated) belongs 82 to 83 °C. `O=C(c1ccc(OCCN2CCCCC2)cc1)c1c(-c2ccc(O)cc2)sc2ccccc12` had a melting point of 100 to 103 °C.

In the case of `CC[C@H](Cn1ncnn1)n1cnc2cc3c(=O)n([C@H](C)Cn4ncnn4)nnc3cc2c1=O`, the melting point is 80 to 82 °C.

`Fc1ccc(-c2ncn(C3CCNCC3)c2-c2ccnc(Oc3ccccc3F)n2)cc1` showed a melting point of 154 to 155 °C.

Compound `CCOc1cc2c(=O)cc(C(=O)O)n(CC)c2ccc1=O` had a melting point of 227 to 228 °C. Next, `Cn1nc(-c2ccc(F)cc2)c(-c2ccncc2)c1N`: 155 to 158 °C; `CC(CSC(=O)Nc1ccccc1)C(=O)N(CC(=O)O)C1CCCC1` (configuration not stated): 170 to 172 °C; `CCCc1nc2c(N)nc3cc(OCc4ccc(F)cc4)ccc3c2s1`: 189 to 192 °C.

Regarding `COC(=O)[C@H]1CC[C@H](n2ccn(-c3ccc(C4(C)CCN(C(=O)C(F)(F)F)CC4)cc3)c2=O)CC1`, the melting point was 182 to 184 °C. To `CSc1nc(SC)nc(-c2cc(C(C)(C)C)c(O)c(C(C)(C)C)c2)n1` belongs 94 °C. Next, `O=c1c(I)coc2ccccc12`: 95 to 97 °C; `COC1SC(c2ccncc2)=C(C)NC1=O` (configuration not stated): 134 to 135 °C; `COc1cc(-c2ccccc2)c([N+](=O)[O-])cc1OC`: 113 to 115 °C. On to `CCN(CC)CCN1C(=O)C(O)C(c2ccc(OC)cc2)Sc2c1ccc1ccccc21` (configuration not stated), for which the melting point lay in the range of 124 to 125 °C. Next, `C(=C\c1nc(COc2cccc(CCCn3cncn3)c2)co1)/c1ccccc1`: 59 to 60 °C.

Compound `O=[N+]([O-])c1ccc2c(c1)C(n1ccccc1=S)=CC(CF)(CF)O2` gave a melting point of 209 to 210 °C.

`OCCc1ccc(-c2ccccc2)s1`: the melting point was 74 °C.
